The experiment relates to ALK1 mutant zebrafish. The experiment can be described thus: Treatment of ALK1 mutant zebrafish, microscopic images of the lateral dorsal aorta. The class given is in vivo. Conditions: 0.3 μM ATRA, 24-51 hours after insemination; control 0.1% DMSO; FIG. 5. As for the experimental part: The zebrafish ALK1 mutant is in a gene that is defective in some patients that suffer from HHT (hereditary hemorrhagic telangiectasia). The ALK1 mutant phenotype is an enlarged lateral dorsal aorta (LDA).
The treatment with the different active ingredients took place, between 24-51 hours after insemination of zebrafish eggs. The treatment was performed with 0.1% DMSO (first row) and 0.3 μM ATRA (second row).

SMILES strings stand for the structures.

With `CC1=C(/C=C/C(C)=C/C=C/C(C)=C/C(=O)O)C(C)(C)CCC1` [ATRA, all-trans retinoic acid], the “overgrowth of the aorta (enlarged lateral dorsal aorta) in the ALK1 mutant” value is recorded as “suppressed”.
